In patent publication US11702422B2, “Imidazopyridazines as modulators of IL-17” (Janssen Pharmaceutica NV, priority 2020, dated 2023):

How the values were obtained:
[1] = system: IL-17A-induced G-CSF production in human normal keratinocyte (NHK); assay: NHK Assay: IL-17A-induced G-CSF production in human normal keratinocytes; assay type: cell-based; details: Homo sapiens, Keratinocyte, 24 h, adult normal human keratinocytes, IL-17A 5 ng/mL, simple average if tested more than once
Outline: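 Adult NHK, 3000-4000 cells/well; rhIL-17A + titrated cpd preincubated 1 h rt, then onto cells. Final: IL-17A 5 ng/mL, DMSO 0.2%, 5% FBS. 24 h, 37° C. G-CSF in supernatant by HTRF vs standard curve; IC50. Viability by CellTiter-Glo vs DMSO.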

[2] = biological target: IL-17A(FLAG-Tagged): IL-17RA(His-Tagged) (Homo sapiens, UniProt Q16552, K93Q); assay: IL-17A(FLAG-Tagged): IL-17RA(His-Tagged) Binding Disruption Eu-HTRF Assay; details: IL-17A/IL-17RA binding disruption, simple average if tested more than once
Outline: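 IC50 comes from a one-site competition fit of the HTRF 665/620 nm ratio. Compound dilutions (2-fold, 22 points) were held 1 h rt with FLAG-tagged IL-17A dimer, then His-tagged IL-17RA plus Eu-cryptate anti-FLAG and D2 anti-His antibodies were added for 2 h rt.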

UniProt Q16552, sequence (Q16552 with tags, fused parts or gaps K93Q): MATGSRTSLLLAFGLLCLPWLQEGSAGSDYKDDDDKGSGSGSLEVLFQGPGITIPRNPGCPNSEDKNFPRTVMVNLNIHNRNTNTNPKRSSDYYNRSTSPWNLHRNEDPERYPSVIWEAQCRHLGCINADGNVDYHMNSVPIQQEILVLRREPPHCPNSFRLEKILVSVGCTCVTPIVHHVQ

IC50 [2] [nM]	Compound	IC50 [1] [nM]
310	[2H]C([2H])([2H])n1nccc1C(=O)N[C@H](c1cn2ncc([C@H](NC(=O)CCC(F)F)C3CC3)cc2n1)C1CCC(F)(F)CC1 [Example 283, N—((S)-(7-((R)-Cyclopropyl(4,4-difluorobutanamido)methyl)imidazo[1,2-b]pyridazin-2-yl)(4,4-difluorocyclohexyl)methyl)-1-(methyl-d3)-1H-pyrazole-5-carboxamide]	690
220	CC(C)Oc1nocc1C(=O)N[C@H](c1cn2ncc([C@H](NC(=O)CCC(F)(F)F)C3CC3)cc2n1)C1CCC(F)(F)CC1 [Example 284, N—((S)-(7-((R)-Cyclopropyl(4,4,4-trifluorobutanamido)methyl)imidazo[1,2-b]pyridazin-2-yl)(4,4-difluorocyclohexyl)methyl)-3-isopropoxyisoxazole-4-carboxamide]	920
120	O=C(CCC(F)(F)F)N[C@@H](c1cnn2cc([C@@H](NC(=O)c3conc3OCC(F)F)C3CCC(F)(F)CC3)nc2c1)C1CC1 [Example 285, N—((S)-(7-((R)-Cyclopropyl(4,4,4-trifluorobutanamido)methyl)imidazo[1,2-b]pyridazin-2-yl)(4,4-difluorocyclohexyl)methyl)-3-(2,2-difluoroethoxy)isoxazole-4-carboxamide]	340
310	O=C(CCC(F)F)N[C@@H](c1cnn2cc([C@@H](NC(=O)c3conc3OCC(F)F)C3CCC(F)(F)CC3)nc2c1)C1CC1 [Example 286, N—((S)-(7-((R)-Cyclopropyl(4,4-difluorobutanamido)methyl)imidazo[1,2-b]pyridazin-2-yl)(4,4-difluorocyclohexyl)methyl)-3-(2,2-difluoroethoxy)isoxazole-4-carboxamide]	7500
140	O=C(CCC(F)F)N[C@@H](c1cnn2cc([C@@H](NC(=O)c3conc3COC(F)F)C3CCC(F)(F)CC3)nc2c1)C1CC1 [Example 287, N—((S)-(7-((R)-Cyclopropyl(4,4-difluorobutanamido)methyl)imidazo[1,2-b]pyridazin-2-yl)(4,4-difluorocyclohexyl)methyl)-3-((difluoromethoxy)methyl)isoxazole-4-carboxamide]	410
71	O=C(CCC(F)F)N[C@@H](c1cnn2cc([C@@H](NC(=O)c3nonc3C3CC3)C3CCC(F)(F)CC3)nc2c1)C1CC1 [Example 288, 4-Cyclopropyl-N—((S)-(7-((R)-cyclopropyl(4,4-difluorobutanamido)methyl)imidazo[1,2-b]pyridazin-2-yl)(4,4-difluorocyclohexyl)methyl)-1,2,5-oxadiazole-3-carboxamide]	200
37	O=C(CC1CC(F)(F)C1)N[C@@H](c1cnn2cc([C@@H](NC(=O)c3nonc3C3CC3)C3CCC(F)(F)CC3)nc2c1)C1CC1 [Example 289, 4-Cyclopropyl-N—((S)-(7-((R)-cyclopropyl(2-(3,3-difluorocyclobutyl)acetamido)methyl)imidazo[1,2-b]pyridazin-2-yl)(4,4-difluorocyclohexyl)methyl)-1,2,5-oxadiazole-3-carboxamide]	23
83	Cc1nonc1C(=O)N[C@H](c1cn2ncc([C@H](NC(=O)CCC3CC3(F)F)C3CC3)cc2n1)C1CCC(F)(F)CC1 (stereo partly drawn) [Example 290, N-((1S)-(7-((1R)-Cyclopropyl(3-(2,2-difluorocyclopropyl)propanamido)methyl)imidazo[1,2-b]pyridazin-2-yl)(4,4-difluorocyclohexyl)methyl)-4-methyl-1,2,5-oxadiazole-3-carboxamide]	220
370	Cc1nonc1C(=O)N[C@H](c1cn2ncc([C@H](NC(=O)CC3CCCC3(F)F)C3CC3)cc2n1)C1CCC(F)(F)CC1 (stereo partly drawn) [Example 291, N-((1S)-(7-((1R)-Cyclopropyl(2-(2,2-difluorocyclopentyl)acetamido)methyl)imidazo[1,2-b]pyridazin-2-yl)(4,4-difluorocyclohexyl)methyl)-4-methyl-1,2,5-oxadiazole-3-carboxamide]	4000
220	CC(C)Oc1nocc1C(=O)N[C@H](c1cn2ncc([C@H](NC(=O)CC3CC(F)(F)C3)C3CC3)cc2n1)C1CCC(F)(F)CC1 [Example 292, N—((S)-(7-((R)-Cyclopropyl(2-(3,3-difluorocyclobutyl)acetamido)methyl)imidazo[1,2-b]pyridazin-2-yl)(4,4-difluorocyclohexyl)methyl)-3-isopropoxyisoxazole-4-carboxamide]	870
160	O=C(CC1CC(F)(F)C1)N[C@@H](c1cnn2cc([C@@H](NC(=O)c3conc3OCC(F)F)C3CCC(F)(F)CC3)nc2c1)C1CC1 [Example 293, N—((S)-(7-((R)-Cyclopropyl(2-(3,3-difluorocyclobutyl)acetamido)methyl)imidazo[1,2-b]pyridazin-2-yl)(4,4-difluorocyclohexyl)methyl)-3-(2,2-difluoroethoxy)isoxazole-4-carboxamide]	540
86	O=C(CC1CC(F)(F)C1)N[C@@H](c1cnn2cc([C@@H](NC(=O)c3conc3COC(F)F)C3CCC(F)(F)CC3)nc2c1)C1CC1 [Example 294, N—((S)-(7-((R)-Cyclopropyl(2-(3,3-difluorocyclobutyl)acetamido)methyl)imidazo[1,2-b]pyridazin-2-yl)(4,4-difluorocyclohexyl)methyl)-3-((difluoromethoxy)methyl)isoxazole-4-carboxamide]	38
150	O=C(CC12CC(F)(C1)C2)N[C@@H](c1cnn2cc([C@@H](NC(=O)c3conc3OCC(F)F)C3CCC(F)(F)CC3)nc2c1)C1CC1 [Example 295, N—((S)-(7-((R)-Cyclopropyl(2-(3-fluorobicyclo[1.1.1]pentan-1-yl)acetamido)methyl)imidazo[1,2-b]pyridazin-2-yl)(4,4-difluorocyclohexyl)methyl)-3-(2,2-difluoroethoxy)isoxazole-4-carboxamide]	710
22	O=C(CC12CC(F)(C1)C2)N[C@@H](c1cnn2cc([C@@H](NC(=O)c3nonc3C3CC3)C3CCC(F)(F)CC3)nc2c1)C1CC1 [Example 296, 4-Cyclopropyl-N—((S)-(7-((R)-cyclopropyl(2-(3-fluorobicyclo[1.1.1]pentan-1-yl)acetamido)methyl)imidazo[1,2-b]pyridazin-2-yl)(4,4-difluorocyclohexyl)methyl)-1,2,5-oxadiazole-3-carboxamide]	50
31	O=C(CC1(C(F)(F)F)CC1)N[C@@H](c1cnn2cc([C@@H](NC(=O)c3nonc3C3CC3)C3CCC(F)(F)CC3)nc2c1)C1CC1 [Example 297, 4-Cyclopropyl-N—((S)-(7-((R)-cyclopropyl(2-(1-(trifluoromethyl)cyclopropyl)acetamido)methyl)imidazo[1,2-b]pyridazin-2-yl)(4,4-difluorocyclohexyl)methyl)-1,2,5-oxadiazole-3-carboxamide]	87
1200	CC(C)Oc1nocc1C(=O)N[C@H](c1cn2ncc([C@H](NC(=O)CCC(F)F)C3CC3)cc2n1)C1CCC(F)(F)CC1 [Example 302, N—((S)-(7-((R)-Cyclopropyl(4,4-difluorobutanamido)methyl)imidazo[1,2-b]pyridazin-2-yl)(4,4-difluorocyclohexyl)methyl)-3-isopropoxyisoxazole-4-carboxamide]	> 20000
250	CC(C)n1nccc1C(=O)N[C@H](c1cn2ncc([C@H](NC(=O)COCC(F)(F)F)C3CC3)cc2n1)C1CCC(F)(F)CC1 [Example 303, N—((S)-(7-((R)-Cyclopropyl(2-(2,2,2-trifluoroethoxy)acetamido)methyl)imidazo[1,2-b]pyridazin-2-yl)(4,4-difluorocyclohexyl)methyl)-1-isopropyl-1H-pyrazole-5-carboxamide]	280
620	Cc1nonc1C(=O)N[C@H](c1cn2ncc([C@H](NC(=O)COCC(F)F)C3CC3)cc2n1)C1CCC(F)(F)CC1 [Example 304, N—((S)-(7-((R)-Cyclopropyl(2-(2,2-difluoroethoxy)acetamido)methyl)imidazo[1,2-b]pyridazin-2-yl)(4,4-difluorocyclohexyl)methyl)-4-methyl-1,2,5-oxadiazole-3-carboxamide]	910
140	CC(C)n1nccc1C(=O)N[C@H](c1cn2ncc([C@H](NC(=O)COCC(F)F)C3CC3)cc2n1)C1CCC(F)(F)CC1 [Example 305, N—((S)-(7-((R)-Cyclopropyl(2-(2,2-difluoroethoxy)acetamido)methyl)imidazo[1,2-b]pyridazin-2-yl)(4,4-difluorocyclohexyl)methyl)-1-isopropyl-1H-pyrazole-5-carboxamide]	1100
210	Cc1nonc1C(=O)N[C@H](c1cn2ncc([C@H](NC(=O)COC3CC3)C3CC3)cc2n1)C1CCC(F)(F)CC1 [Example 306, N—((S)-(7-((R)-(2-Cyclopropoxyacetamido)(cyclopropyl)methyl)imidazo[1,2-b]pyridazin-2-yl)(4,4-difluorocyclohexyl)methyl)-4-methyl-1,2,5-oxadiazole-3-carboxamide]	1500
110	CC(C)n1nccc1C(=O)N[C@H](c1cn2ncc([C@H](NC(=O)COC3CC3)C3CC3)cc2n1)C1CCC(F)(F)CC1 [Example 307, N—((S)-(7-((R)-(2-Cyclopropoxyacetamido)(cyclopropyl)methyl)imidazo[1,2-b]pyridazin-2-yl)(4,4-difluorocyclohexyl)methyl)-1-isopropyl-1H-pyrazole-5-carboxamide]	420
